Patent publication US20230233569A1 (Revolution Medicines, Inc., priority 2020, published 2023)

Legend:
[1] = system: Capan-1 (K-Ras G12V); experiment: CellTiter-Glo cell viability assay, 5-day treatment; assay type: cell-based; details: Homo sapiens, CAPAN-1, 120 h, 5-day treatment; read-out: Capan-1 Cell Viability assay data (K-Ras G12V, IC50)
In short: (§1)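 Viability is read as luminescence on day 5 after direct compound addition to plated cells, following about 30 minutes' room-temperature equilibration. Each signal is scaled to mean DMSO as 100%.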

[2] = system: NCI-H358 (K-Ras G12C); experiment: as above; assay type: cell-based; details: Homo sapiens, NCI-H358, 120 h, 5-day treatment; read-out: H358 Cell Viability assay data (K-Ras G12C, IC50)
In short: as §1

[3] = molecular target: KRAS G12C (Homo sapiens, UniProt P01116+P62937, G12C); experiment: Disruption of BRAF RBD interaction with Ras (FRET / MOA assay, with Cyclophilin A); assay type: biochemical; details: read-out: KRAS G12C FRET data, IC50
Sequence of KRAS G12C (P01116 1-169 isoform P01116-2 G12C): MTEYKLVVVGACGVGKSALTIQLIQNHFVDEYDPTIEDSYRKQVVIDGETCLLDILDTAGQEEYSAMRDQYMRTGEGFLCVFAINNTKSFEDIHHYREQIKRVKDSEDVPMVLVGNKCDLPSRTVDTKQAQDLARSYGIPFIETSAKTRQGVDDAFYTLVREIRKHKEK
Sequence of KRAS G12C (P62937 whole entry): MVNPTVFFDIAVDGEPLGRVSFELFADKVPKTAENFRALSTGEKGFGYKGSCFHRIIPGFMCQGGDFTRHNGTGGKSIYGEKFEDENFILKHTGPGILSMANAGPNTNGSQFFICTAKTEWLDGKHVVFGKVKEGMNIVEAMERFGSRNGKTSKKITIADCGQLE
In short: (§2)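 Biochemical TR-FRET disruption assay: nucleotide-loaded K-Ras with Cyclophilin A and a BRAF RBD construct, compound titrated over 10 points from 30 μM (final).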

[4] = molecular target: KRAS G12D (Homo sapiens, UniProt P01116+P62937, G12D); experiment: as above; assay type: biochemical; details: read-out: KRAS G12D FRET data, IC50
Sequence of KRAS G12D (P01116 1-169 isoform P01116-2 G12D limits assumed): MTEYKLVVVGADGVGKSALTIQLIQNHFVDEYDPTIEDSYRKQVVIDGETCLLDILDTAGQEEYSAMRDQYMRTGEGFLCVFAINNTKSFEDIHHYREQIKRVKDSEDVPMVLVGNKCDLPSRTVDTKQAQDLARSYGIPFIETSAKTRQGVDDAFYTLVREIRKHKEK
Sequence of KRAS G12D (P62937 whole entry): as the sequence (P62937 whole entry) above
In short: as §2

[5] = molecular target: KRAS G12S (Homo sapiens, UniProt P01116+P62937, G12S); experiment: as above; assay type: biochemical; details: read-out: KRAS G12S FRET data, IC50
Sequence of KRAS G12S (P01116 1-169 isoform P01116-2 G12S limits assumed): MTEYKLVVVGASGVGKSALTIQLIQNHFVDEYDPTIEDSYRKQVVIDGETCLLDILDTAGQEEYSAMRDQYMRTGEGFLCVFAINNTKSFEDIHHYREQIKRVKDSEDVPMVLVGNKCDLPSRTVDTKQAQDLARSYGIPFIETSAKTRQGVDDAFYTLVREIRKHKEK
Sequence of KRAS G12S (P62937 whole entry): as the sequence (P62937 whole entry) above
In short: as §2

[6] = molecular target: KRAS G12V (Homo sapiens, UniProt P01116+P62937, G12V); experiment: as above; assay type: biochemical; details: KRAS G12V; read-out: KRAS G12V FRET data IC50
Sequence of KRAS G12V (P01116 1-169 isoform P01116-2 G12V limits assumed): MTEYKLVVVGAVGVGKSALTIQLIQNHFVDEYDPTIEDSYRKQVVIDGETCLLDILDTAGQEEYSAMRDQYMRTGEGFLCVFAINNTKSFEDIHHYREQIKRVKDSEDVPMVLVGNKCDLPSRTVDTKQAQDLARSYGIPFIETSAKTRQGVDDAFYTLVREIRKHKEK
Sequence of KRAS G12V (P62937 whole entry): as the sequence (P62937 whole entry) above
In short: as §2

[7] = molecular target: KRAS G13C (Homo sapiens, UniProt P01116+P62937, G13C); experiment: as above; assay type: biochemical; details: read-out: KRAS G13C FRET data, IC50
Sequence of KRAS G13C (P01116 1-169 isoform P01116-2 G13C): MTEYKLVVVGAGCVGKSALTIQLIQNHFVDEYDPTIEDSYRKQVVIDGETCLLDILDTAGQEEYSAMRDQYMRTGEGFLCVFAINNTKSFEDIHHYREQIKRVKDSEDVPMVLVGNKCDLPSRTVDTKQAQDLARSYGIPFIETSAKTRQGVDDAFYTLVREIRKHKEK
Sequence of KRAS G13C (P62937 whole entry): as the sequence (P62937 whole entry) above
In short: as §2

[8] = molecular target: KRAS G13D (Homo sapiens, UniProt P01116+P62937, G13D); experiment: as above; assay type: biochemical; details: KRAS G13D; read-out: KRAS G13D FRET data IC50
Sequence of KRAS G13D (P01116 1-169 isoform P01116-2 G13D limits assumed): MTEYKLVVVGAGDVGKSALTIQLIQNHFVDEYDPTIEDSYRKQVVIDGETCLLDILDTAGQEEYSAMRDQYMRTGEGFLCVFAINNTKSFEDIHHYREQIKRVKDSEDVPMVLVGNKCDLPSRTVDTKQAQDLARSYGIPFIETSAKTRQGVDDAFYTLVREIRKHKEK
Sequence of KRAS G13D (P62937 whole entry): as the sequence (P62937 whole entry) above
In short: as §2

[9] = molecular target: KRAS WT (Homo sapiens, UniProt P01116+P62937); experiment: as above; assay type: biochemical; details: KRAS WT; read-out: KRAS WT FRET data IC50
Sequence of KRAS WT (P01116 1-169 isoform P01116-2 limits assumed): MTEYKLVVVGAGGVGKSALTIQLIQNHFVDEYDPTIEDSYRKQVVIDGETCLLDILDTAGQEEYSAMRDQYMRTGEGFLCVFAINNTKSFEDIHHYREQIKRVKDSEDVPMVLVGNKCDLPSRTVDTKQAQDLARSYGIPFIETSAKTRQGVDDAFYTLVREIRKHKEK
Sequence of KRAS WT (P62937 whole entry): as the sequence (P62937 whole entry) above
In short: as §2

[10] = molecular target: NRAS G12C (Homo sapiens, UniProt P01111+P62937, G12C); experiment: as above; assay type: biochemical; details: NRAS G12C; read-out: NRAS G12C FRET data IC50
Sequence of NRAS G12C (P01111 whole entry G12C): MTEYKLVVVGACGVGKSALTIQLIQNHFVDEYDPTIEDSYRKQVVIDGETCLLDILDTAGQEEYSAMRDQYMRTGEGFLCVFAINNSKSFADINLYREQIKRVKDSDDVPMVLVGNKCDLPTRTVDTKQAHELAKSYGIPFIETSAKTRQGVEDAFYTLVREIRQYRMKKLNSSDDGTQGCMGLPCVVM
Sequence of NRAS G12C (P62937 whole entry): as the sequence (P62937 whole entry) above

[11] = molecular target: KRAS Q61H (Homo sapiens, UniProt P01116+P62937, Q61H); experiment: as above; assay type: biochemical; details: KRAS Q61H; read-out: KRAS Q61H FRET data IC50
Sequence of KRAS Q61H (P01116 1-169 isoform P01116-2 Q61H limits assumed): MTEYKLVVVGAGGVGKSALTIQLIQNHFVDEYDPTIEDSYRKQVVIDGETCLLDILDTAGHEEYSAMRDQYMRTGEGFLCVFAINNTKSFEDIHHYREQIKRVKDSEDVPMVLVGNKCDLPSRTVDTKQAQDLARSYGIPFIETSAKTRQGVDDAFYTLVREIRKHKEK
Sequence of KRAS Q61H (P62937 whole entry): as the sequence (P62937 whole entry) above
In short: (§3)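 IC50 reflects compound-driven Ras:Cyclophilin A ternary complex displacing BRAF RBD, read as lowered TR-FRET ratio relative to DMSO after Eu anti-His (10 nM) and APC anti-GST (50 nM) detection for 1.5 h. Prior incubation 3 h, 25° C, with 12.5 nM GMPPNP-loaded Ras, 50 nM BRAF RBD, 25 μM Cyclophilin A; top compound 30 μM.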

[12] = molecular target: NRAS Q61K (Homo sapiens, UniProt P01111+P62937, Q61K); experiment: as above; assay type: biochemical; details: NRAS Q61K; read-out: NRAS Q61K FRET data IC50
Sequence of NRAS Q61K (P01111 whole entry Q61K): as the sequence (P01111 whole entry G12C) above, with C12G, Q61K counted along it
Sequence of NRAS Q61K (P62937 whole entry): as the sequence (P62937 whole entry) above
In short: as §3

[13] = molecular target: NRAS Q61R (Homo sapiens, UniProt P01111+P62937, Q61R); experiment: as above; assay type: biochemical; details: NRAS Q61R; read-out: NRAS Q61R FRET data IC50
Sequence of NRAS Q61R (P01111 whole entry Q61R): as the sequence (P01111 whole entry G12C) above, with C12G, Q61R counted along it
Sequence of NRAS Q61R (P62937 whole entry): as the sequence (P62937 whole entry) above
In short: as §3

[14] = molecular target: NRAS WT (Homo sapiens, UniProt P01111+P62937); experiment: as above; assay type: biochemical; details: NRAS WT; read-out: NRAS WT FRET data IC50
Sequence of NRAS WT (P01111 whole entry): as the sequence (P01111 whole entry G12C) above, with C12G counted along it
Sequence of NRAS WT (P62937 whole entry): as the sequence (P62937 whole entry) above
In short: as §3

| SMILES | IC50 [2] [nM] | IC50 [3] [nM] | IC50 [4] [nM] | IC50 [5] [nM] | IC50 [6] [nM] | IC50 [7] [nM] | IC50 [8] [nM] | IC50 [9] [nM] | IC50 [10] [nM] | IC50 [11] [nM] | IC50 [12] [nM] | IC50 [13] [nM] | IC50 [14] [nM] | IC50 [1] [nM] |
| --- | --- | --- | --- | --- | --- | --- | --- | --- | --- | --- | --- | --- | --- | --- |
| CCn1c(-c2cccnc2[C@H](C)OC)c2c3cc(ccc31)-c1csc(n1)C[C@H](NC(=O)[C@H](C(C)C)N(C)C(=O)N1CC(OC(F)F)C1)C(=O)N1CCC[C@H](N1)C(=O)OCC(C)(C)C2 (atropisomer, axis not shown) [Example A302] | < 10 | 10 to 100 | 100 to 1000 | 100 to 1000 | 100 to 1000 | 100 to 1000 | 100 to 1000 | 100 to 1000 | 10 to 100 | 10 to 100 | 10 to 100 | 100 to 1000 | 100 to 1000 | 10 to 100 |
| CCn1c(-c2cccnc2[C@H](C)OC)c2c3cc(ccc31)-c1csc(n1)C[C@H](NC(=O)[C@H](C(C)C)N(C)C(=O)N1CCCOCC1)C(=O)N1CCC[C@H](N1)C(=O)OCC(C)(C)C2 (atropisomer, axis not shown) [Example A335] | < 10 | 10 to 100 | 100 to 1000 | 10 to 100 | 100 to 1000 | 100 to 1000 | 100 to 1000 | 10 to 100 | 10 to 100 | 10 to 100 | 10 to 100 | 10 to 100 | 10 to 100 | 10 to 100 |
| CCn1c(-c2cccnc2[C@H](C)OC)c2c3cc(ccc31)-c1csc(n1)C[C@H](NC(=O)[C@H](C(C)C)N(C)C(=O)N1CCOCC1)C(=O)N1CCC[C@H](N1)C(=O)OCC(C)(C)C2 (atropisomer, axis not shown) [Example A372] | < 10 | 10 to 100 | 100 to 1000 | 100 to 1000 | 100 to 1000 | 100 to 1000 | 100 to 1000 | 10 to 100 | 10 to 100 | 10 to 100 | 10 to 100 | 10 to 100 | 10 to 100 | 10 to 100 |
| CCn1c(-c2cccnc2[C@H](C)OC)c2c3cc(ccc31)-c1csc(n1)C[C@H](NC(=O)[C@H](C(C)C)N(C)C(=O)N1CC[C@@H](O)C1)C(=O)N1CCC[C@H](N1)C(=O)OCC(C)(C)C2 (atropisomer, axis not shown) [Example A376] | 10 to 100 | 10 to 100 | 100 to 1000 | 100 to 1000 | 100 to 1000 | 100 to 1000 | 100 to 1000 | 100 to 1000 | 10 to 100 | 10 to 100 | 10 to 100 | 100 to 1000 | 100 to 1000 | 10 to 100 |
| CCn1c(-c2cccnc2[C@H](C)OC)c2c3cc(ccc31)-c1csc(n1)C[C@H](NC(=O)[C@H](C(C)C)N(C)C(=O)N1CC(C#N)C1)C(=O)N1CCC[C@H](N1)C(=O)OCC(C)(C)C2 (atropisomer, axis not shown) [Example A382] | < 10 | 10 to 100 | 100 to 1000 | 100 to 1000 | 100 to 1000 | 100 to 1000 | 100 to 1000 | 100 to 1000 | 10 to 100 | 10 to 100 | 10 to 100 | 100 to 1000 | 100 to 1000 | 10 to 100 |

Second part, led by results:

| IC50 [2] [nM] | IC50 [3] [nM] | IC50 [4] [nM] | IC50 [5] [nM] | IC50 [6] [nM] | IC50 [7] [nM] | IC50 [8] [nM] | IC50 [9] [nM] | IC50 [10] [nM] | IC50 [11] [nM] | IC50 [12] [nM] | IC50 [13] [nM] | IC50 [14] [nM] | SMILES | IC50 [1] [nM] |
| --- | --- | --- | --- | --- | --- | --- | --- | --- | --- | --- | --- | --- | --- | --- |
| < 10 | 10 to 100 | 100 to 1000 | 100 to 1000 | 100 to 1000 | 100 to 1000 | 100 to 1000 | 10 to 100 | 10 to 100 | 10 to 100 | 10 to 100 | 10 to 100 | 10 to 100 | CCn1c(-c2cccnc2[C@H](C)OC)c2c3cc(ccc31)-c1csc(n1)C[C@H](NC(=O)[C@H](C(C)C)N(C)C(=O)N1CCN(C(=O)CO)CC1)C(=O)N1CCC[C@H](N1)C(=O)OCC(C)(C)C2 (atropisomer, axis not shown) [Example A306] | 10 to 100 |
| < 10 | 10 to 100 | 100 to 1000 | 100 to 1000 | 100 to 1000 | 100 to 1000 | 100 to 1000 | 100 to 1000 | 10 to 100 | 10 to 100 | 10 to 100 | 10 to 100 | 10 to 100 | CCn1c(-c2cccnc2[C@H](C)OC)c2c3cc(ccc31)-c1csc(n1)C[C@H](NC(=O)[C@H](C(C)C)N(C)C(=O)N1CCO[C@@H](C)C1)C(=O)N1CCC[C@H](N1)C(=O)OCC(C)(C)C2 (atropisomer, axis not shown) [Example A309] | 10 to 100 |
| 100 to 1000 | 100 to 1000 | 1000 to 10000 | 100 to 1000 | 100 to 1000 | 100 to 1000 | 100 to 1000 | 100 to 1000 | 100 to 1000 | 100 to 1000 | 100 to 1000 | 1000 to 10000 | 100 to 1000 | CCn1c(-c2cccnc2[C@H](C)OC)c2c3cc(ccc31)-c1csc(n1)C[C@H](NC(=O)[C@H]1CCCO1)C(=O)N1CCC[C@H](N1)C(=O)OCC(C)(C)C2 (atropisomer, axis not shown) [Example A315] | 100 to 1000 |
| 10 to 100 | 100 to 1000 | 1000 to 10000 | 100 to 1000 | 100 to 1000 | 100 to 1000 | 100 to 1000 | 100 to 1000 | 100 to 1000 | 100 to 1000 | 10 to 100 | 100 to 1000 | 100 to 1000 | CCn1c(-c2cccnc2[C@H](C)OC)c2c3cc(ccc31)-c1csc(n1)C[C@H](NC(=O)[C@H](C(C)C)N(C)C(=O)N1CC(NC)C1)C(=O)N1CCC[C@H](N1)C(=O)OCC(C)(C)C2 (atropisomer, axis not shown) [Example A337] | 100 to 1000 |
| 10 to 100 | 10 to 100 | 100 to 1000 | 10 to 100 | 10 to 100 | 10 to 100 | 10 to 100 | 10 to 100 | 10 to 100 | 10 to 100 | 10 to 100 | 10 to 100 | 10 to 100 | CCn1c(-c2cccnc2[C@H](C)OC)c2c3cc(ccc31)-c1csc(n1)C[C@H](NC(=O)[C@H](C(C)C)N(C)C(=O)N(C)C1CCC1)C(=O)N1CCC[C@H](N1)C(=O)OCC(C)(C)C2 (atropisomer, axis not shown) [Example A349] | 100 to 1000 |
| < 10 | 10 to 100 | 100 to 1000 | 100 to 1000 | 100 to 1000 | 100 to 1000 | 100 to 1000 | 100 to 1000 | 10 to 100 | 10 to 100 | 10 to 100 | 10 to 100 | 10 to 100 | CCn1c(-c2cccnc2[C@H](C)OC)c2c3cc(ccc31)-c1csc(n1)C[C@H](NC(=O)[C@H](C(C)C)N(C)C(=O)N1CC(CO)C1)C(=O)N1CCC[C@H](N1)C(=O)OCC(C)(C)C2 (atropisomer, axis not shown) [Example A356] | 10 to 100 |
| 10 to 100 | 10 to 100 | 100 to 1000 | 10 to 100 | 100 to 1000 | 100 to 1000 | 100 to 1000 | 10 to 100 | 10 to 100 | 10 to 100 | 10 to 100 | 10 to 100 | 10 to 100 | CCn1c(-c2cccnc2[C@H](C)OC)c2c3cc(ccc31)-c1csc(n1)C[C@H](NC(=O)[C@H](C(C)C)N(C)C(=O)N1CCCC1)C(=O)N1CCC[C@H](N1)C(=O)OCC(C)(C)C2 (atropisomer, axis not shown) [Example A400] | 10 to 100 |
